{"source": "patent US7906520B2", "about": "“Methods for treating pain” (The General Hospital Corporation, priority 2003, dated 2011)", "key": {"[1]": {"tested_on": "GTP cyclohydrolase I", "details": "cited from earlier work; for potency as GTP cyclohydrolase I inhibitor relative to oxidized pterins: more potent than oxidized pterins; for Ki: read-out: Ki, noncompetitive inhibitor of GTP cyclohydrolase I"}, "[2]": {"tested_on": "SNI model", "experiment": "SNI model, L-NAME versus DAHP", "format": "in vivo", "method": "In this figure, closed circles represent nNOS knockout mice with DAHP; open circles, nNOS knock out mice with vehicle; closed triangles, wild type mice with DAHP; and open triangles, wild type mice with vehicle. […] In this figure, closed triangles represent L-NAME administration; open circles, L-NAME+DAHP administration; closed circles, DAHP administration; and open triangles, vehicle administration. L-NAME was administered at 25 mg/kg, i.p., single dose, and DAHP was administered at 120 mg/kg, i.p., single dose. The antinociceptive efficacy of this high L-NAME dose is weaker (about 50%) than that of a moderate dose of DAHP."}, "[3]": {"tested_on": "sepiapterin reductase", "details": "cited from earlier work"}, "[4]": {"tested_on": "CFA-induced paw inflammation", "experiment": "CFA model of inflammatory pain: Hargreaves test and paw weight", "format": "in vivo, rat", "details": "NAS 50 mg/kg i.p.", "method": "FIGS. 11A-11E are a series of graphs showing the effect of DHAP on thermal hyperalgesia in the CFA model which is a model for inflammatory pain. […] On the left end of the graph, two doses of DAHP (180 mg/kg i.p.) were injected, the first 30 minutes before injection of CFA into the hindpaw, the second 4 hours after CFA (indicated with arrows D1 and D2). On the right, a single dose (dotted arrow D1) of DAHP (180 mg/kg i.p.) was injected 24 h after induction of paw inflammation without any treatment during the first 24 h following CFA injection. […] In FIGS. 11C-11D, the effects of systemically administered DAHP (180 mg/kg i.p. single dose; 11C) are compared with the effects of a single intrathecal dose (1 mg/kg i.t.; 11D) which was administered via a lumbar spinal catheter. In both cases, treatment was started 24 hours after CFA injection into the hindpaw. Because of slightly different baseline levels (11C compared with 11D) effects of DAHP after i.p. and i.t. treatment are additionally presented as percentage change of paw withdrawal latency (FIG. 11E) to allow for a direct comparison of both routes of administration.\nFIG. 12 is a bar graph showing the increase of the paw weight of the inflamed paw compared with the contralateral paw. Paw weight was determined 48 hours following CFA injection. The increase of the paw weight is a measure for the inflammatory paw edema and therefore allows assessment of paw inflammation.\nFIGS. 15A and 15B show the effect of the sepiapterin reductase inhibitor, N-acetyl-serotonin (NAS) on thermal hyperalgesia in the CFA model. The paw withdrawal latency (PWL) to radiant heat (Hargreaves test) is a measure for the heat sensitivity. NAS treatment (single dose of 50 mg/kg i.p.) was started 24 hours after CFA injection into the hindpaw. Data are presented as percentage change of the PWL compared with the PWL of the non-inflamed contralateral paw. […] Paw weight was determined 48 hours following CFA injection. The increase of the paw weight is a measure for the inflammatory paw edema.\nHypersensitivity was induced using the CFA model of paw inflammation. In these experiments, BH4 was injected at time “zero” after measurement of baseline paw withdrawal latency."}, "[5]": {"details": "systemically administered, low doses; cited from earlier work"}, "[6]": {"tested_on": "SNI model of neuropathic pain", "experiment": "Spared nerve injury (SNI) model of neuropathic pain, von Frey and acetone tests", "format": "in vivo", "method": "FIGS. 8A-8D represent a series of graphs showing the effect of DAHP on nociceptive behavior in the SNI model of neuropathic pain. Figures on the left show the threshold to mechanical stimuli applied with von Frey hairs (von Frey threshold). Figures on the right show the duration of paw licking, shaking and lifting following acetone application to the paw as a measure for cold allodynia. In FIG. 8A, rats were treated with DAHP (180 mg/kg/d i.p.) for three days starting three days after surgery (early treatment). Nociceptive behavior was assessed daily before and after drug injection. In FIG. 8B, the treatment period was extended to five days (180 mg/kg/d i.p.) starting three days after surgery and pain behavior was assessed daily before and after drug injection and once every second day for an additional week after stopping the daily drug injections. In FIG. 8C, treatment with DAHP (180 mg/kg/d i.p. for 5 days) was started 17 days after surgery i.e. in the chronic phase without any treatment in the early phase. Nociceptive behavior was assessed once daily 3 h after drug injection. In FIG. 8D, animals received a continuous spinal infusion of DAHP (6 mg/kg/d) for 14 days. The infusion was started directly after surgery. Nociceptive behavior was assessed once daily.\nFIGS. 16A-16D show the effects of systemic (16A) and intrathecal (16B) treatment with methotrexate (MTX) on the nociceptive behavior in the SNI model of neuropathic pain. […] In FIG. 16A MTX (0.2 mg/kg/d) was injected i.p. once daily starting 5 days after SNI surgery. Nociceptive behavior was assessed once daily three hours after drug injection. In FIG. 16B, MTX was administered as continuous intrathecal infusion (0.1 mg/kg/d for 14 days) starting right after SNI surgery. Nociceptive behavior was assessed once daily. FIGS. 16C and 16D show the body weight gain of animals during systemic (16C) and intrathecal (16D) MTX treatment. Determination of the weight gain was used to assess general well-being and potential toxic effects of MTX.\nIn this graph, closed triangles represent vehicle, i.p.; open triangles represent DAHP at 90 mg/kg/day, i.p.; open squares represent DAHP at 180 mg/kg/day, i.p.; and open circles represent DAHP at 270 mg/kg/day, i.p.\nAll procedures were performed in accordance with Massachusetts General Hospital animal care regulations. Adult male Sprague Dawley rats (200-300 g) were anesthetized with halothane. For the sciatic nerve transection (axotomy), the left sciatic nerve was exposed at the mid thigh level, ligated with 3/0 silk, and sectioned distally. The wound was sutured in two layers, and the animals were allowed to recover. For SNI the tibial and peroneal branch of the sciatic nerve were ligated and transected whereas the sural nerve was spared. For CCI, the sciatic nerve was loosely ligated with dexon 4/0 (three ligatures) and for the spinal ligation model the L5 spinal segmental nerve was ligated."}}}
{"smiles": "C[C@H](O)[C@H](O)[C@@H]1CNc2nc(N)[nH]c(=O)c2N1", "note": "[6S-BH4]", "values": [{"measurement": "effectiveness relative to BH4", "setting": "[1]; feedback inhibition of GTPCH", "result": "more than one order of magnitude less effective"}]}
{"smiles": "C[C@H](O)[C@H](O)C1=Nc2c(nc(N)[nH]c2=O)NC1", "note": "[7,8-dihydro-L-Biopterin]", "values": [{"measurement": "potency as GTP cyclohydrolase I inhibitor relative to oxidized pterins", "setting": "[1]", "result": "approximately 12 times"}, {"measurement": "Ki", "setting": "[1]", "result": 14.4, "unit": "µM"}]}
{"smiles": "COC(=O)[C@@H](N)CCCNC(=N)N[N+](=O)[O-]", "note": "[L-NAME, N^G-Nitro-L-arginine-methyl ester]", "values": [{"measurement": "effect of L-NAME co-injection on efficacy of DAHP", "setting": "[2]; L-NAME 25 mg/kg i.p. + DAHP 120 mg/kg i.p.", "result": "does not further increase the efficacy of DAHP"}, {"measurement": "antinociceptive efficacy relative to a moderate dose of DAHP", "setting": "[2]; L-NAME 25 mg/kg i.p. single dose, weaker than DAHP", "result": "about 50%"}]}
{"smiles": "C[C@H](O)C(=O)C1=Nc2c(nc(N)[nH]c2=O)NC1", "note": "[L-Sepiapterin]", "values": [{"measurement": "potency as GTP cyclohydrolase I inhibitor relative to oxidized pterins", "setting": "[1]", "result": 12, "unit": "times"}, {"measurement": "IC50", "setting": "[1]; read-out: IC50, GTP cyclohydrolase I inhibitor", "result": "12.7 ± 1.8", "unit": "µM"}]}
{"smiles": "O=C(CCl)NCCc1ccc(O)c(O)c1", "note": "[N-Chloroacetyldopamine]", "values": [{"measurement": "potency as sepiapterin reductase inhibitor relative to NAS", "setting": "[3]", "result": "increased potency"}]}
{"smiles": "O=C(CCl)NCCc1c[nH]c2ccc(O)cc12", "note": "[N-Chloroacetylserotonin]", "values": [{"measurement": "potency as sepiapterin reductase inhibitor relative to NAS", "setting": "[3]", "result": "increased potency"}]}
{"smiles": "COCC(=O)NCCc1c[nH]c2ccc(O)cc12", "note": "[N-Methoxyacetylserotonin]", "values": [{"measurement": "potency as sepiapterin reductase inhibitor relative to NAS", "setting": "[3]", "result": "increased potency"}]}
{"smiles": "CC(=O)NCCc1c[nH]c2ccc(O)cc12", "note": "[NAS, N-acetyl-serotonin]", "values": [{"measurement": "CFA-induced inflammatory paw edema", "setting": "[4]", "result": "no effect"}, {"measurement": "thermal hyperalgesia", "setting": "[4]; 24 hours after CFA", "result": "reduction of thermal hyperalgesia"}]}
{"smiles": "C[C@H](O)[C@H](O)[C@H]1CNc2nc(N)[nH]c(=O)c2N1", "note": "[Tetrahydro-L-biopterin]", "values": [{"measurement": "Ki", "setting": "[1]", "result": 15.7, "unit": "µM"}]}
{"smiles": "Nc1nc2nc[nH]c2c(=O)[nH]1", "note": "[guanine]", "values": [{"measurement": "GTPCH inhibitory potency relative to DAHP", "setting": "[1]; higher potency than DAHP", "result": "approximately 10 fold"}]}
{"smiles": "CN(Cc1cnc2nc(N)nc(N)c2n1)c1ccc(C(=O)N[C@@H](CCC(=O)O)C(=O)O)cc1", "note": "[methotrexate]", "values": [{"measurement": "blood brain barrier penetration", "setting": "[5]", "result": "does not penetrate the blood brain barrier"}, {"measurement": "pain in response to mechanical and cold allodynia", "setting": "[6]; MTX 0.2 mg/kg/d i.p. or 0.1 mg/kg/day continuous lumbar spinal delivery", "result": "reduction in pain"}, {"measurement": "acute toxicity (body weight change over time)", "setting": "[6]; MTX systemic or intrathecal", "result": "absence of detectable acute toxicity"}]}
